Read-outs that look alike come from different tables or passages of the source.
Assays:
human PPARalpha = biological target: T1, human PPARalpha (Homo sapiens, UniProt Q07869); assay: Cellular PPARalpha assay (HEK PPARalpha reporter cell line, luciferase); type: cell-based; settings: GR-GAL4-humanPPARalpha-LBD
T1 construct: human PPARalpha receptor (amino acids S167-Y468); expressed in transfected cells; host or cells: HEK cells, stably transfected (pcDNA3, CMV promoter)
T1 sequence (Q07869 167-468): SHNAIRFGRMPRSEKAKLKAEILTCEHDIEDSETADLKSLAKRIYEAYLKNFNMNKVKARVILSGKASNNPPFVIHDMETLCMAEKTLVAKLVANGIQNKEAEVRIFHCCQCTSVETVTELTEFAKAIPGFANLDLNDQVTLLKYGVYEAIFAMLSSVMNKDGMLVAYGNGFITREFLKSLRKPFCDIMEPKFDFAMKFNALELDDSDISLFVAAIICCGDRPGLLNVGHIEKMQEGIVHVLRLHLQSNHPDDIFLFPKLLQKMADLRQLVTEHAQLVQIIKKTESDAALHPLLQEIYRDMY
Procedure: Determination of EC50 Values of PPAR Agonists in the Cellular PPARalpha Assay
(§1) The potency of substances which bind to human PPARalpha and activate it in an agonistic manner is analyzed using a stably transfected HEK cell line (HEK=human embryo kidney) which is referred to here as PPARalpha reporter cell line. It contains two genetic elements, a luciferase reporter element (pdeltaM-GAL4-Luc-Zeo) and a PPARalpha fusion protein (GR-GAL4-humanPPARalpha-LBD) which mediates expression of the luciferase reporter element depending on a PPARalpha ligand. The stably and constitutively expressed fusion protein GR-GAL4-humanPPARalpha-LBD binds in the cell nucleus of the PPARalpha reporter cell line via the GAL4 protein portion to the GAL4 DNA binding motifs 5′-upstream of the luciferase reporter element which is stably integrated in the genome of the cell line. There is only weak expression of the luciferase reporter gene in the absence of a PPARalpha ligand if fatty acid-depleted fetal calf serum (cs-FCS) is used in the assay. PPARalpha ligands bind and activate the PPARalpha fusion protein and thereby stimulate the expression of the luciferase reporter gene. The luciferase which is formed can be detected by means of chemiluminescence via an appropriate substrate.
The PPARalpha reporter cell line was prepared in two stages. Firstly, the luciferase reporter element was constructed and stably transfected into HEK cells. For this purpose, five binding sites of the yeast transcription factor GAL4 (Accession # AF264724) were cloned in 5′-upstream of a 68 bp-long minimal MMTV promoter (Accession # V01175). The minimal MMTV promoter section contains a CCAAT box and a TATA element in order to enable efficient transcription by RNA polymerase II. The cloning and sequencing of the GAL4-MMTV construct took place in analogy to the description of Sambrook J. et al. (Molecular cloning, Cold Spring Harbor Laboratory Press, 1989). Then the complete Photinus pyralis gene (Accession # M15077) was cloned in 3′-downstream of the GAL4-MMTV element. After sequencing, the luciferase reporter element consisting of five GAL4 binding sites, MMTV promoter and luciferase gene was recloned into a plasmid which confers zeocin resistance in order to obtain the plasmid pdeltaM-GAL4-Luc-Zeo. This vector was transfected into HEK cells in accordance with the statements in Ausubel, F. M. et al. (Current protocols in molecular biology, Vol. 1-3, John Wiley & Sons, Inc., 1995).
In a second step, the PPARalpha fusion protein (GR-GAL4-humanPPARalpha-LBD was introduced into the stable cell clone described. For this purpose, initially the cDNA coding for the N-terminal 76 amino acids of the glucocorticoid receptor (Accession # P04150) was linked to the cDNA section coding for amino acids 1-147 of the yeast transcription factor GAL4 (Accession # P04386). The cDNA of the ligand-binding domain of the human PPARalpha receptor (amino acids S167-Y468; Accession # S74349) was cloned in at the 3′-end of this GR-GAL4 construct. The fusion construct prepared in this way (GR-GAL4-humanPPARalpha-LBD) was recloned into the plasmid pcDNA3 (Invitrogen) in order to enable constitutive expression therein by the cytomegalovirus promoter. This plasmid was linearized with a restriction endonuclease and stably transfected into the previously described cell clone containing the luciferase reporter element. The finished PPARalpha reporter cell line which contains a luciferase reporter element and constitutively expresses the PPARalpha fusion protein (GR-GAL4-human PPARalpha-LBD) was isolated by selection with zeocin (0.5 mg/ml) and G418 (0.5 mg/ml).
The activity of PPARalpha agonists is determined in a 3-day assay, which is described below: […]

human PPARdelta = biological target: T2, human PPARdelta (Homo sapiens, UniProt Q03181); assay: Cellular PPARdelta assay (HEK PPARdelta reporter cell line, luciferase); type: cell-based; settings: GR-GAL4-humanPPARdelta-LBD
T2 construct: human PPARdelta receptor (amino acids S139-Y441); expressed in transfected cells; host or cells: HEK cells, stably transfected (pcDNA3, CMV promoter)
T2 sequence (Q03181 139-441): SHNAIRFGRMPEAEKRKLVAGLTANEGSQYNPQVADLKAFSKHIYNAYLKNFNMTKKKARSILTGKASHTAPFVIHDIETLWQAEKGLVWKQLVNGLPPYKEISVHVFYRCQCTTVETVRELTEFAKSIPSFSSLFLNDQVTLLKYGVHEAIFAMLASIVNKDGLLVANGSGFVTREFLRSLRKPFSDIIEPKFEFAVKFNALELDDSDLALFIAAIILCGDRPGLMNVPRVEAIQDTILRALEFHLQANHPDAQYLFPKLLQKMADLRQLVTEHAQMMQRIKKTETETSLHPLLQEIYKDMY
Procedure: Determination of EC50 Values of PPAR Agonists in the Cellular PPARdelta Assay
as §1, with “PPARdelta” for “PPARalpha”, “In analogy to the assay described for PPARalpha, the PPARdelta reporter cell line also” for “It”, “(GR-GAL4-humanPPARdelta-LBD)” for “(GR-GAL4-humanPPARalpha-LBD)”, “GR-GAL4-humanPPARdelta-LBD” for “GR-GAL4-humanPPARalpha-LBD”, “little” for “weak”, “stimulate” for “stimulate the”
The production of the stable PPARdelta reporter cell line is based on a stable HEK-cell clone which was stably transfected with a luciferase reporter element. This step was already described above in the section “construction of the PPARalpha reporter cell line”. In a second step, the PPARdelta fusion protein (GR-GAL4-humanPPARdelta-LBD was stably introduced into this cell clone. For this purpose, the cDNA coding for the N-terminal 76 amino acids of the glucocorticoid receptor (Accession # P04150) was linked to the cDNA section coding for amino acids 1-147 of the yeast transcription factor GAL4 (Accession # P04386). The cDNA of the ligand-binding domain of the human PPARdelta receptor (amino acids S139-Y441; Accession # L07592) was cloned in at the 3′-end of this GR-GAL4 construct. The fusion construct prepared in this way (GR-GAL4-humanPPARdelta-LBD) was recloned into the plasmid pcDNA3 (Invitrogen) in order to enable constitutive expression by the cytomegalovirus promoter. This plasmid was linearized with a restriction endonuclease and stably transfected into the previously described cell clone containing the luciferase reporter element. The resulting PPARdelta reporter cell line which contains a luciferase reporter element and constitutively expresses the PPARdelta fusion protein (GR-GAL4-human PPARdelta-LBD) was isolated by selection with zeocin (0.5 mg/ml) and G418 (0.5 mg/ml).
The activity of PPARdelta agonists is determined in a 3-day assay in exact analogy to the procedure already described for the PPARalpha reporter cell line except that the PPARdelta reporter cell line and a specific PPARdelta agonist was used as a standard to control test efficacy.

[1] = diabetic animal model; cited from earlier work
[2] = obese, insulin resistant rhesus monkeys; cited from earlier work
[3] = rhesus and cynomolgus monkeys; cited from earlier work
[4] = two weeks clinical trials in healthy volunteers; cited from earlier work

Row | Structure (SMILES) | EC50 (human PPARalpha) | EC50 (human PPARdelta) | other results
1 | O=c1[nH]c(-c2ccc(OCc3sc(-c4ccc(C(F)(F)F)cc4)nc3CCCOCc3ccccc3)cc2Cl)no1 [Example 50, 3-{4-[4-(3-Benzyloxy-propyl)-2-(4-trifluoromethyl-phenyl)-thiazol-5-ylmethoxy]-2-chloro-phenyl}-4H-[1,2,4]oxadiazol-5-one] | 420 nM | 0.7 nM | 
2 | Cc1oc(-c2ccc(-c3ccccc3)cc2)nc1COc1ccc(-c2noc(=O)[nH]2)c(Cl)c1 [Example 30, 3-[4-(2-Biphenyl-4-yl-5-methyl-oxazol-4-ylmethoxy)-2-chloro-phenyl]-4H-[1,2,4]oxadiazol-5-one] | 250 nM | 16 nM | 
3 | CCCc1c(OCCCOc2ccc(OCC(=O)O)cc2)ccc(C(C)=O)c1O [Example L-165041] |  |  | plasma cholesterol [1]: raises
4 | Cc1sc(-c2ccc(S(F)(F)(F)(F)F)cc2)nc1CCOc1ccc(-c2noc(=O)[nH]2)c(Cl)c1 [Example 32] | 320 nM | 310 nM | 
5 | CCCCc1nc(-c2ccc(C(F)(F)F)cc2)sc1COc1cc(F)c(-c2noc(=O)[nH]2)c(F)c1 [Example 13, 3-{4-[4-Butyl-2-(4-trifluoromethyl-phenyl)-thiazol-5-ylmethoxy]-2,6-difluoro-phenyl}-4H-[1,2,4]oxadiazol-5-one] | 360 nM | 10 nM | 
6 | Cc1cc(SCc2sc(-c3ccc(C(F)(F)F)cc3)nc2C)ccc1OCC(=O)O [GW501516] |  |  | HDL-cholesterol [2]: raises; insulin levels [2]: decreases; plasma LDL-cholesterol [2]: decreases; triglycerides [2]: decreases
7 | CCCCc1nc(-c2ccc(C(F)(F)F)cc2)sc1COc1ccc(Cc2noc(=O)[nH]2)c(Cl)c1 [Example 10, 3-{4-[4-Butyl-2-(4-trifluoromethyl-phenyl)-thiazol-5-ylmethoxy]-2-chloro-benzyl}-4H-[1,2,4]oxadiazol-5-one] | 770 nM | 11 nM | 
8 | CCCc1c(OCCCSc2nnc(SCC(=O)O)s2)ccc(C(C)=O)c1O [YM-16638] |  |  | plasma lipids [3]: significantly lowers; plasma lipids [4]: acts in a similar manner

Second part, led by results:

Row | EC50 (human PPARalpha) | EC50 (human PPARdelta) | Structure (SMILES) | other results
9 | 1660 nM | 56 nM | Cc1nc(-c2ccc(C(F)(F)F)cc2)sc1COc1ccc(-c2noc(=O)[nH]2)c(Cl)c1 [Example 4, 3-{2-Chloro-4-[4-methyl-2-(4-trifluoromethyl-phenyl)-thiazole-5-ylmethoxy]-phenyl}-4H-[1,2,4]oxadiazole-5-one] | 
10 | 230 nM | 1 nM | COCCOCc1nc(-c2ccc(C(F)(F)F)cc2)sc1COc1ccc(-c2noc(=O)[nH]2)c(Cl)c1 [Example 34, 3-{2-Chloro-4-[4-(2-methoxy-ethoxymethyl)-2-(4-trifluoromethyl-phenyl)-thiazol-5-ylmethoxy]-phenyl}-4H-[1,2,4]oxadiazol-5-one] | 
11 | > 10000 nM | 15 nM | CCCCc1nc(-c2ccc(C(F)(F)F)cc2)sc1COc1ccc(-c2noc(=O)[nH]2)c(OC)c1 [Example 18, 3-{4-[4-Butyl-2-(4-trifluoromethyl-phenyl)-thiazol-5-ylmethoxy]-2-methoxy-phenyl}-4H-[1,2,4]oxadiazol-5-one] | 
12 | 150 nM | 3 nM | CCCCc1nc(-c2ccc(C(F)(F)F)cc2)sc1COc1ccc(-c2noc(=O)[nH]2)c(C(F)(F)F)c1 [Example 15, 3-{4-[4-Butyl-2-(4-trifluoromethyl-phenyl)-thiazol-5-ylmethoxy]-2-trifluoromethyl-phenyl}-4H-[1,2,4]oxadiazol-5-one] | 
13 | 1560 nM | 55 nM | O=c1[nH]c(-c2ccc(OCc3sc(-c4ccc(C(F)(F)F)cc4)nc3CCCCO)cc2Cl)no1 [Example 20, 3-{2-Chloro-4-[4-(4-hydroxy-butyl)-2-(4-trifluoromethyl-phenyl)-thiazol-5-ylmethoxy]-phenyl}-4H-[1,2,4]oxadiazol-5-one] | 
14 | 1330 nM | 68 nM | Cc1nc(-c2ccc(C(F)(F)F)cc2)sc1CSc1ccc(-c2noc(=O)[nH]2)cc1 [Example 5, 3-{4-[4-Methyl-2-(4-trifluoromethyl-phenyl)-thiazole-5-ylmethylsulfanyl]-phenyl}-4H-[1,2,4]oxadiazole-5-one] | 
15 | 120 nM | 23 nM | CCCCc1nc(-c2ccc(C(F)(F)F)cc2)sc1COCc1ccc(-c2noc(=O)[nH]2)c(F)c1 [Example 28, 3-{4-[4-Butyl-2-(4-trifluoromethyl-phenyl)-thiazol-5-ylmethoxymethyl]-2-fluoro-phenyl}-4H-[1,2,4]oxadiazol-5-one] | 

Source: patent publication US7709509B2, “Oxadiazolones and derivatives thereof as peroxisome proliferator-activated receptor (PPAR) delta agonists” (Sanofi-Aventis Deutschland GmbH, priority 2004, dated 2010)
